# Test results reported in ChEMBL document CHEMBL1155185, “Design, synthesis, screening, and molecular modeling study of a new series of ROS1 receptor tyrosine kinase inhibitors” (Bioorg Med Chem Lett, 2009).
# Target: Proto-oncogene tyrosine-protein kinase ROS (Homo sapiens) (UniProt P08922)
# Experiment: Inhibition of ROS1 at 20 uM by HotSpot assay
# Chain of Proto-oncogene tyrosine-protein kinase ROS (Homo sapiens) (P08922 whole entry): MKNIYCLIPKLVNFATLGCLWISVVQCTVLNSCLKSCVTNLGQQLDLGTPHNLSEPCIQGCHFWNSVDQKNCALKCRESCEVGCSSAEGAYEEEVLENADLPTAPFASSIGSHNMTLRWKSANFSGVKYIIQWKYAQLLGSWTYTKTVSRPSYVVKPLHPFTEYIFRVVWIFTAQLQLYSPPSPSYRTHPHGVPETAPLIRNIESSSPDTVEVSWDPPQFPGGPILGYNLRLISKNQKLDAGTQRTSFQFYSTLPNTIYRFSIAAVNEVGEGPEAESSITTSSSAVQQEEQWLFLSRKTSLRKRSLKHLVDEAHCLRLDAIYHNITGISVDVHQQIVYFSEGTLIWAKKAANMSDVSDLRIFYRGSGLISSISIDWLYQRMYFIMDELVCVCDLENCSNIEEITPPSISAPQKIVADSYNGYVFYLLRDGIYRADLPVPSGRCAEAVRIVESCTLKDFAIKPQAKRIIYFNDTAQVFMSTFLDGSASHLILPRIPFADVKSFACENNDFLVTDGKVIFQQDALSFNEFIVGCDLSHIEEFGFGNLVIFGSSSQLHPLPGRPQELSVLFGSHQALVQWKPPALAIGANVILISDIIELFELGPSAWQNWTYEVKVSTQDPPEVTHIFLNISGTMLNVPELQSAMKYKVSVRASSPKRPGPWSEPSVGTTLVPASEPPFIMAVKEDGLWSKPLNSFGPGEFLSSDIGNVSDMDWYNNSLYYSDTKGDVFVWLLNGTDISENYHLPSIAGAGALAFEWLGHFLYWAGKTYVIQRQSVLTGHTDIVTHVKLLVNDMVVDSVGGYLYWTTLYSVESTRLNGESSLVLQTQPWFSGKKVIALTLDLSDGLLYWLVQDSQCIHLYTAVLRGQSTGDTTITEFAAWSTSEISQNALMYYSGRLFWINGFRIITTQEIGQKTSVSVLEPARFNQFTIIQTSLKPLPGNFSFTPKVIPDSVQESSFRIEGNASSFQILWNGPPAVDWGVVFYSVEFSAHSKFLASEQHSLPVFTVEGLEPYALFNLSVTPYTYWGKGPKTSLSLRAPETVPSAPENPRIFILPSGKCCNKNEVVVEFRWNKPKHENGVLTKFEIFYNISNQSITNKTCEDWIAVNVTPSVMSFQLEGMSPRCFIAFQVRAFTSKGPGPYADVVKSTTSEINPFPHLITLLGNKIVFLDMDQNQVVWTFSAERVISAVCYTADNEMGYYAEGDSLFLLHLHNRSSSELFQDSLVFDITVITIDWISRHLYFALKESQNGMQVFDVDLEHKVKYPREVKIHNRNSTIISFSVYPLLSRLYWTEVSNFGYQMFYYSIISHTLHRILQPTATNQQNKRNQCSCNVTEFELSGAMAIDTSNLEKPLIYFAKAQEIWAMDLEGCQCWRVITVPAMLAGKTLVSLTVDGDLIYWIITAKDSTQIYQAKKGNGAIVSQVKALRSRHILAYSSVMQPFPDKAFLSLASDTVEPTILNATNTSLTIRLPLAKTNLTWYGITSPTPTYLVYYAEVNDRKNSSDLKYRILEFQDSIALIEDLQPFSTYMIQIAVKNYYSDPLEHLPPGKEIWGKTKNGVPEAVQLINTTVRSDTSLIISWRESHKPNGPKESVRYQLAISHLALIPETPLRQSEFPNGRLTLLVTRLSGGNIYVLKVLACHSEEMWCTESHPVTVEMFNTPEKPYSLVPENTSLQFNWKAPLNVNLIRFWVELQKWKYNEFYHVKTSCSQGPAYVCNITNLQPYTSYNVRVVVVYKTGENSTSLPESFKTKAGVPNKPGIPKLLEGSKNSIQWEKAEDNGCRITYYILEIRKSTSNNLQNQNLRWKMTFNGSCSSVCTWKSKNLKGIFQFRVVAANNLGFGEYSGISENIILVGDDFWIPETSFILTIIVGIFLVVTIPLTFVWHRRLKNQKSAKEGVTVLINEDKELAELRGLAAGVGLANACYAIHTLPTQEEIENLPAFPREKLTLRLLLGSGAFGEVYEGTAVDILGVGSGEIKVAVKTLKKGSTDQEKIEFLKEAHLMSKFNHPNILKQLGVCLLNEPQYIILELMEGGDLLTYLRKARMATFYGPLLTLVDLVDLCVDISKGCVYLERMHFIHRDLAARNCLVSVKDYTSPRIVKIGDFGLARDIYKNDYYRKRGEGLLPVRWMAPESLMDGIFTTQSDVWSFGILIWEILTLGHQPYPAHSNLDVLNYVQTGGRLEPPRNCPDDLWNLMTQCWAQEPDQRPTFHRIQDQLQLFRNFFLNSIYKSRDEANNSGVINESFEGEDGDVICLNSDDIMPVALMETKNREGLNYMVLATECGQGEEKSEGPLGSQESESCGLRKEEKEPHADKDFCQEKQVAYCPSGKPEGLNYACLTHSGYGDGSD
row,Structure (SMILES),inhibition
1,COc1cc(C)cc(-c2nn(CC#N)cc2-c2ccnc(-c3ccccc3C(C)=O)c2)c1,< 30%
2,Cc1cc(O)cc(-c2nn(CC#N)cc2-c2ccnc(-c3ccc(N(C)C)cc3)c2)c1,< 30%
3,COc1cc(C)cc(-c2nn(CC#N)cc2-c2ccnc(-c3cccc(C(C)=O)c3)c2)c1,< 30%
4,COc1cc(C)cc(-c2nn(CC#N)cc2-c2ccnc(-c3ccc(C(C)=O)cc3)c2)c1,< 30%
5,COc1cc(C)cc(-c2c(-c3ccnc(-c4cccc(NC(C)=O)c4)c3)cnn2CC#N)c1,< 30%
6,COc1cc(C)cc(-c2c(-c3ccnc(-c4cccc(C(C)=O)c4)c3)cnn2CC#N)c1,< 30%
7,COc1cc(C)cc(-c2c(-c3ccc(-c4cccc(C(C)=O)c4)nc3)cnn2CC#N)c1,< 30%
8,COc1cc(C)cc(-c2c(-c3ccnc(-c4ccc(Oc5ccccc5)cc4)c3)cnn2CC#N)c1,< 30%
9,COc1cc(C)cc(-c2c(-c3ccnc(-c4ccc(C(C)=O)cc4)c3)cnn2CC#N)c1,< 30%
10,Cc1cc(O)cc(-c2c(-c3ccnc(-c4ccccc4)c3)cnn2CC#N)c1,< 30%
11,Cc1cc(O)cc(-c2c(-c3ccnc(-c4cccnc4)c3)cnn2CC#N)c1,< 30%
12,CC(=O)c1ccccc1-c1cc(-c2cn(CC#N)nc2-c2cc(C)cc(O)c2)ccn1,< 30%
13,CC(=O)Nc1ccccc1-c1cc(-c2cnn(CC#N)c2-c2cc(C)cc(O)c2)ccn1,< 30%
14,CC(=O)c1ccccc1-c1ccc(-c2cn(CC#N)nc2-c2cc(C)cc(O)c2)cn1,< 30%
15,Cc1cc(O)cc(-c2nn(CC#N)cc2-c2ccnc(-c3ccccc3)c2)c1,< 30%
16,COc1cc(C)cc(-c2c(-c3ccnc(-c4ccccc4)c3)cnn2CC#N)c1,< 30%
17,CC(=O)Nc1cccc(-c2cc(-c3cnn(CC#N)c3-c3cc(C)cc(O)c3)ccn2)c1,< 30%
18,COc1cc(C)cc(-c2c(-c3ccnc(-c4ccc(C#N)cc4)c3)cnn2CC#N)c1,< 30%
19,CC(=O)c1cccc(-c2cc(-c3cnn(CC#N)c3-c3cc(C)cc(O)c3)ccn2)c1,< 30%
20,CC(=O)c1cccc(-c2cc(-c3cn(CC#N)nc3-c3cc(C)cc(O)c3)ccn2)c1,< 30%
21,Cc1cc(O)cc(-c2nn(CC#N)cc2-c2ccc(-c3cccnc3)nc2)c1,< 30%
22,COc1cc(C)cc(-c2nn(CC#N)cc2-c2ccc(-c3cccnc3)nc2)c1,< 30%
23,COc1cc(C)cc(-c2nn(CC#N)cc2-c2ccnc(-c3ccccc3NC(C)=O)c2)c1,< 30%
24,COc1cc(C)cc(-c2nn(CC#N)cc2-c2ccnc(-c3cccnc3)c2)c1,< 30%
25,CC(=O)c1ccc(-c2cc(-c3cnn(CC#N)c3-c3cc(C)cc(O)c3)ccn2)cc1,< 30%
26,COc1cc(C)cc(-c2c(-c3ccc(-c4cccnc4)nc3)cnn2CC#N)c1,< 30%

row,Structure (SMILES),inhibition
1,COc1cc(C)cc(-c2nn(CC#N)cc2-c2ccnc(-c3ccccc3)c2)c1,< 30%
2,COc1cc(C)cc(-c2nn(CC#N)cc2-c2ccc(-c3cccc(C(C)=O)c3)nc2)c1,< 30%
3,COc1cc(C)cc(-c2c(-c3ccc(-c4ccccc4C(C)=O)nc3)cnn2CC#N)c1,< 30%
4,Cc1cc(O)cc(-c2nn(CC#N)cc2-c2ccnc(-c3ccc(Oc4ccccc4)cc3)c2)c1,< 30%
5,CC(=O)c1ccccc1-c1cc(-c2cnn(CC#N)c2-c2cc(C)cc(O)c2)ccn1,< 30%
6,COc1cc(C)cc(-c2c(-c3ccnc(-c4cccnc4)c3)cnn2CC#N)c1,< 30%
7,Cc1cc(O)cc(-c2c(-c3ccnc(-c4ccc(N(C)C)cc4)c3)cnn2CC#N)c1,< 30%
8,COc1cc(C)cc(-c2nn(CC#N)cc2-c2ccnc(-c3ccc(Oc4ccccc4)cc3)c2)c1,< 30%
9,COc1cc(C)cc(-c2c(-c3ccnc(-c4ccccc4NC(C)=O)c3)cnn2CC#N)c1,< 30%
10,COc1cc(C)cc(-c2nn(CC#N)cc2-c2ccnc(-c3ccc(C#N)cc3)c2)c1,< 30%
11,COc1cc(C)cc(-c2nn(CC#N)cc2-c2ccnc(-c3cccc(NC(C)=O)c3)c2)c1,< 30%
12,CC(=O)c1cccc(-c2ccc(-c3cn(CC#N)nc3-c3cc(C)cc(O)c3)cn2)c1,< 30%
13,Cc1cc(O)cc(-c2c(-c3ccnc(-c4ccc(Oc5ccccc5)cc4)c3)cnn2CC#N)c1,< 30%
14,Cc1cc(O)cc(-c2nn(CC#N)cc2-c2ccnc(-c3ccc(C#N)cc3)c2)c1,< 30%
15,COc1cc(C)cc(-c2nn(CC#N)cc2-c2ccnc(-c3ccc(N(C)C)cc3)c2)c1,< 30%
16,Cc1cc(O)cc(-c2c(-c3ccnc(-c4ccc(C#N)cc4)c3)cnn2CC#N)c1,< 30%
17,COc1cc(C)cc(-c2c(-c3ccnc(-c4ccccc4C(C)=O)c3)cnn2CC#N)c1,< 30%
18,CC(=O)Nc1ccccc1-c1cc(-c2cn(CC#N)nc2-c2cc(C)cc(O)c2)ccn1,< 30%
19,Cc1cc(O)cc(-c2nn(CC#N)cc2-c2ccnc(-c3cccnc3)c2)c1,96%
20,CC(=O)c1ccc(-c2cc(-c3cn(CC#N)nc3-c3cc(C)cc(O)c3)ccn2)cc1,< 30%
21,CC(=O)c1ccccc1-c1ccc(-c2cnn(CC#N)c2-c2cc(C)cc(O)c2)cn1,< 30%
22,CC(=O)Nc1cccc(-c2cc(-c3cn(CC#N)nc3-c3cc(C)cc(O)c3)ccn2)c1,< 30%
23,COc1cc(C)cc(-c2nn(CC#N)cc2-c2ccc(-c3ccccc3C(C)=O)nc2)c1,< 30%
24,COc1cc(C)cc(-c2c(-c3ccnc(-c4ccc(N(C)C)cc4)c3)cnn2CC#N)c1,< 30%
25,CC(=O)c1cccc(-c2ccc(-c3cnn(CC#N)c3-c3cc(C)cc(O)c3)cn2)c1,< 30%
